Experimental data reported in PubChem BioAssay AID2060624 (Molecular Pharmacology Branch, DTP, NCI, 2025).

Test system: 217524-143-R1-J4-PDC spheroids with HUVEC/MSC, viability
Assay: Anticancer human tumor 217524-143-R1-J4-PDC patient-derived pancreatic carcinoma cell line growth inhibition [CLK]
Details: for IC50: curve of first compound; for viability, T/C: stronger effect = lower value
Outline: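 Patient-derived tumor cells grown as complex spheroids with HUVEC endothelial cells and mesenchymal stem cells, treated with drug combinations. Concentrations descend in half-log steps from near clinical Cmax, or from 10 microM if Cmax unknown.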

[1] = second compound 0.0316 µM, first compound 0.0316 µM
[2] = second compound 0.0316 µM, first compound 0.1 µM
[3] = second compound 0.0316 µM, first compound 0.316 µM
[4] = second compound 0.0316 µM, first compound 1 µM
[5] = second compound 0.0316 µM, first compound 3.16 µM
[6] = second compound 0.0316 µM, first compound 10 µM
[7] = second compound 0.1 µM, first compound 0.0316 µM
[8] = second compound 0.1 µM, first compound 0.1 µM
[9] = second compound 0.1 µM, first compound 0.316 µM
[10] = second compound 0.1 µM, first compound 1 µM
[11] = second compound 0.1 µM, first compound 3.16 µM
[12] = second compound 0.1 µM, first compound 10 µM
[13] = second compound 0.316 µM, first compound 0.0316 µM
[14] = second compound 0.316 µM, first compound 0.1 µM
[15] = second compound 0.316 µM, first compound 0.316 µM
[16] = second compound 0.316 µM, first compound 1 µM
[17] = second compound 0.316 µM, first compound 3.16 µM
[18] = second compound 0.316 µM, first compound 10 µM
[19] = second compound 1 µM, first compound 0.0316 µM
[20] = second compound 1 µM, first compound 0.1 µM
[21] = second compound 1 µM, first compound 0.316 µM
[22] = second compound 1 µM, first compound 1 µM
[23] = second compound 1 µM, first compound 3.16 µM
[24] = second compound 1 µM, first compound 10 µM
[25] = second compound 3.16 µM, first compound 0.0316 µM
[26] = second compound 3.16 µM, first compound 0.1 µM
[27] = second compound 3.16 µM, first compound 0.316 µM
[28] = second compound 3.16 µM, first compound 1 µM
[29] = second compound 3.16 µM, first compound 3.16 µM
[30] = second compound 3.16 µM, first compound 10 µM
[31] = second compound 10 µM, first compound 0.0316 µM
[32] = second compound 10 µM, first compound 0.1 µM
[33] = second compound 10 µM, first compound 0.316 µM
[34] = second compound 10 µM, first compound 1 µM
[35] = second compound 10 µM, first compound 3.16 µM
[36] = second compound 10 µM, first compound 10 µM
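Note: spheroids exposed to agents for seven days before reading.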
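Throughout, for viability, T/C: 100% = DMSO vehicle control viability.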

In the case of `CC(=O)O[C@H]1C(=O)[C@@]2(C)[C@H]([C@H](OC(=O)c3ccccc3)[C@]3(O)C[C@H](OC(=O)[C@H](O)[C@@H](NC(=O)c4ccccc4)c4ccccc4)C(C)=C1C3(C)C)[C@]1(OC(C)=O)CO[C@@H]1C[C@@H]2O` + CN1CCN(c2cc(C(=O)Nc3cc4cc(-c5cnn(C)c5)ccc4cn3)ccn2)CC1, the IC50 (second compound 0.0316 µM) is reported as under 31.6 nM, the IC50 (second compound 0.1 µM) is reported as under 31.6 nM and the IC50 (second compound 0.316 µM) is reported as under 31.6 nM. For the same compound, the IC50 (second compound 1 µM) was under 31.6 nM, the IC50 (second compound 3.16 µM) was under 31.6 nM and the IC50 (second compound 10 µM) was under 31.6 nM. For the same compound, the viability, T/C [1] was 14.5%, the viability, T/C [2] was 10.6% and the viability, T/C [3] was 10.8%. For the same compound, the viability, T/C [4] was 11.5%, the viability, T/C [5] was 12.1% and the viability, T/C [6] was 16.4%. For the same compound, the viability, T/C [7] was 11.9%, the viability, T/C [8] was 12.1% and the viability, T/C [9] was 9.82%. It also gave a viability, T/C [10] of 10.7%, a viability, T/C [11] of 10.8% and a viability, T/C [12] of 13.2%. It also gave a viability, T/C [13] of 11.1%, a viability, T/C [14] of 11.3% and a viability, T/C [15] of 10.7%. It also gave a viability, T/C [16] of 9.41%, a viability, T/C [17] of 11.7% and a viability, T/C [18] of 12.3%. It also gave a viability, T/C [19] of 1.11%, a viability, T/C [20] of 1.3% and a viability, T/C [21] of 1.35%. It also gave a viability, T/C [22] of 1.2%, a viability, T/C [23] of 2% and a viability, T/C [24] of 1.13%. The viability, T/C [25] was 0.88%, the viability, T/C [26] was 0.73% and the viability, T/C [27] was 0.55%. For the same compound, the viability, T/C [28] was 0.62%, the viability, T/C [29] was 1.1% and the viability, T/C [30] was 0.74%. It also gave a viability, T/C [31] of 0.12%, a viability, T/C [32] of 0.17% and a viability, T/C [33] of 0.16%. The viability, T/C [34] was 0.2%, the viability, T/C [35] was 0.34% and the viability, T/C [36] was 0.24%.

For `COc1ccc([C@@H](O)c2cc(-c3ncnc4cc(N5CCOCC5)ccc34)c(F)cc2Cl)nn1` + CN1CCN(c2cc(C(=O)Nc3cc4cc(-c5cnn(C)c5)ccc4cn3)ccn2)CC1, the IC50 (second compound 0.0316 µM) was 285 nM, the IC50 (second compound 0.1 µM) was under 31.6 nM and the IC50 (second compound 0.316 µM) was under 31.6 nM. For the same compound, the IC50 (second compound 1 µM) was under 31.6 nM, the IC50 (second compound 3.16 µM) was under 31.6 nM and the IC50 (second compound 10 µM) was under 31.6 nM. It also gave a viability, T/C [1] of 70.4%, a viability, T/C [2] of 59.8% and a viability, T/C [3] of 46.9%. It also gave a viability, T/C [4] of 38.5%, a viability, T/C [5] of 26.1% and a viability, T/C [6] of 10.6%. For the same compound, the viability, T/C [7] was 39.6%, the viability, T/C [8] was 50.7% and the viability, T/C [9] was 29.8%. It also gave a viability, T/C [10] of 24.4%, a viability, T/C [11] of 16.2% and a viability, T/C [12] of 10%. It also gave a viability, T/C [13] of 18.1%, a viability, T/C [14] of 18.4% and a viability, T/C [15] of 15%. It also gave a viability, T/C [16] of 13.4%, a viability, T/C [17] of 10.7% and a viability, T/C [18] of 6.07%. It also gave a viability, T/C [19] of 1.28%, a viability, T/C [20] of 0.91% and a viability, T/C [21] of 1.1%. The viability, T/C [22] was 0.93%, the viability, T/C [23] was 0.91% and the viability, T/C [24] was 0.91%. For the same compound, the viability, T/C [25] was 0.52%, the viability, T/C [26] was 0.54% and the viability, T/C [27] was 0.73%. For the same compound, the viability, T/C [28] was 0.44%, the viability, T/C [29] was 1.02% and the viability, T/C [30] was 1.29%. The viability, T/C [31] was 0.08%, the viability, T/C [32] was 0.12% and the viability, T/C [33] was 0.21%. The viability, T/C [34] was 0.18%, the viability, T/C [35] was 0.22% and the viability, T/C [36] was 0.36%.

`COc1cccc2c1C(=O)c1c(O)c3c(c(O)c1C2=O)CC(O)(C(=O)CO)CC3OC1CC(N)C(O)C(C)O1` (stereo not drawn) + CN1CCN(c2cc(C(=O)Nc3cc4cc(-c5cnn(C)c5)ccc4cn3)ccn2)CC1 gave an IC50 (second compound 0.0316 µM) of under 31.6 nM, an IC50 (second compound 0.1 µM) of under 31.6 nM and an IC50 (second compound 0.316 µM) of under 31.6 nM. It also gave an IC50 (second compound 1 µM) of under 31.6 nM, an IC50 (second compound 3.16 µM) of under 31.6 nM and an IC50 (second compound 10 µM) of under 31.6 nM. For the same compound, the viability, T/C [1] was 31.5%, the viability, T/C [2] was 22.6% and the viability, T/C [3] was 18.3%. It also gave a viability, T/C [4] of 12.8%, a viability, T/C [5] of 3.21% and a viability, T/C [6] of 1.12%. For the same compound, the viability, T/C [7] was 23.1%, the viability, T/C [8] was 19.4% and the viability, T/C [9] was 13.4%. For the same compound, the viability, T/C [10] was 11.9%, the viability, T/C [11] was 2.23% and the viability, T/C [12] was 1.21%. It also gave a viability, T/C [13] of 15.5%, a viability, T/C [14] of 11.4% and a viability, T/C [15] of 6.94%. For the same compound, the viability, T/C [16] was 3.93%, the viability, T/C [17] was 1.19% and the viability, T/C [18] was 1.44%. It also gave a viability, T/C [19] of 0.79%, a viability, T/C [20] of 1.09% and a viability, T/C [21] of 0.55%. The viability, T/C [22] was 0.99%, the viability, T/C [23] was 1.55% and the viability, T/C [24] was 2.46%. The viability, T/C [25] was 0.79%, the viability, T/C [26] was 0.89% and the viability, T/C [27] was 0.61%. For the same compound, the viability, T/C [28] was 0.96%, the viability, T/C [29] was 1.17% and the viability, T/C [30] was 0.55%. For the same compound, the viability, T/C [31] was 0.18%, the viability, T/C [32] was 0.12% and the viability, T/C [33] was 0.13%. The viability, T/C [34] was 0.13%, the viability, T/C [35] was 0.11% and the viability, T/C [36] was 0.12%.

With `CCCS(=O)(=O)Nc1ccc(F)c(C(=O)c2c[nH]c3ncc(-c4ccc(Cl)cc4)cc23)c1F` + CNC(=O)c1ccc(Nc2nc(OC3CCCC3)c3c(-c4ccc5nc(C)oc5c4)c[nH]c3n2)c(OC)c1 the IC50 (second compound 0.0316 µM) was over 10000 nM, the IC50 (second compound 0.1 µM) was under 31.6 nM and the IC50 (second compound 0.316 µM) was under 31.6 nM. It also gave an IC50 (second compound 1 µM) of under 31.6 nM, an IC50 (second compound 3.16 µM) of under 31.6 nM and an IC50 (second compound 10 µM) of under 31.6 nM. For the same compound, the viability, T/C [1] was 76.2%, the viability, T/C [2] was 83% and the viability, T/C [3] was 99.1%. It also gave a viability, T/C [4] of 130%, a viability, T/C [5] of 139% and a viability, T/C [6] of 57.1%. For the same compound, the viability, T/C [7] was 40.1%, the viability, T/C [8] was 49.2% and the viability, T/C [9] was 49.9%. It also gave a viability, T/C [10] of 67.3%, a viability, T/C [11] of 76.6% and a viability, T/C [12] of 40.1%. It also gave a viability, T/C [13] of 41.5%, a viability, T/C [14] of 38.8% and a viability, T/C [15] of 45.6%. For the same compound, the viability, T/C [16] was 58.1%, the viability, T/C [17] was 59.2% and the viability, T/C [18] was 31.2%. It also gave a viability, T/C [19] of 35.1%, a viability, T/C [20] of 35.1% and a viability, T/C [21] of 46.9%. The viability, T/C [22] was 45%, the viability, T/C [23] was 49.3% and the viability, T/C [24] was 24.1%. For the same compound, the viability, T/C [25] was 32.1%, the viability, T/C [26] was 31.6% and the viability, T/C [27] was 34.6%. It also gave a viability, T/C [28] of 47.6%, a viability, T/C [29] of 42.1% and a viability, T/C [30] of 17.6%. The viability, T/C [31] was 29.6%, the viability, T/C [32] was 26.5% and the viability, T/C [33] was 38.7%. The viability, T/C [34] was 34.9%, the viability, T/C [35] was 42% and the viability, T/C [36] was 18%.
